One may read the Ki as the equilibrium dissociation constant of an inhibitor or competing ligand from its target. Lower therefore signals a stronger hold on the target.

Each structure is given as a SMILES string. Several values for one entry are separate records, joined by “and”; a condition that tells them apart may be missing. Equal entries are not always repeated.

The assay concerns the target T1, Alpha-bungarotoxin (Bungarus multicinctus, UniProt P60615).
T1 sequence (P60615 whole entry): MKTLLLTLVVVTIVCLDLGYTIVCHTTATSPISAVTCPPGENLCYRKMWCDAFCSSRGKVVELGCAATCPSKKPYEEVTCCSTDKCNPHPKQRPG
Molecule `C[N+](C)(C)C` yielded a Ki of 2400 nM. Turning to `C=C(C=O)C[C@H]1C[C@H](O)[C@]2(C)O[C@@H]3C[C@@H]4O[C@@H]5C[C@]6(C)O[C@]7(C)CC[C@@H]8O[C@@H]9C[C@]%10(C)O[C@@H]%11C(C)=CC(=O)O[C@H]%11C[C@H]%10O[C@H]9C[C@@H](C)[C@H]8O[C@H]7C[C@H]6O[C@@]5(C)C/C=C\[C@H]4O[C@H]3C[C@H]2O1`, the Ki was 0.35 nM and 0.23 nM.

As for `CC[N+](CC)(CC)CC`, the Ki is over 10000 nM.

Regarding `O=c1cccc2n1C[C@H]1CNC[C@H]2C1` [(1S,9R)-7,11-diazatricyclo[7.3.1.0~2,7~]trideca-2,4-dien-6-one], the inhibition constant (Ki) was 1800 nM. In turn, `C[N+](C)(C)CCOC(N)=O` [(2-Hydroxyethyl)trimethyl ammonium chloride carbamate] registered a Ki of 9300 nM.

Take `CN1CCC[C@H]1c1cccnc1` [(R,S)-nicotine]: the Ki was 1700 nM and 900 nM. The molecule `COc1cc2c3cc1Oc1cc(ccc1O)C[C@H]1c4c(cc(OC)c(O)c4Oc4ccc(cc4)C[C@@H]3N(C)CC2)CC[N+]1(C)C` [CAS_57-94-3] yielded an inhibition constant Ki of 5600 nM.

`C[N+]1(C)CCN(c2ccccc2)CC1` [DMPP] gave an inhibition constant Ki of 670 nM. With `CCN1C[C@]2(COC(=O)c3ccccc3-n3c(O)cc(C)c3O)CC[C@H](OC)[C@]34C5C[C@@H]6[C@@H](OC)C[C@@](O)(C5[C@H]6OC)[C@@](O)(C13)[C@@H](OC)C24` (stereo partly drawn) [[(1S,4S,5R,6S,8R,9R,13S,16S,18S)-11-ethyl-8,9-dihydroxy-4,6,16,18-tetramethoxy-11-azahexacyclo[7.7.2.1^{2,5}.0^{1,10}.0^{3,8}.0^{13,17}]nonadecan-13-yl]methyl 2-[(3S)-3-methyl-2,5-dioxopyrrolidin-1-yl]benzoate], the Ki was 7.9 nM and 3.1 nM.

The record behind these values is BindingDB's records for doi:10.1046/j.1471-4159.1996.67010145.x (Mcgill University, 1996).
